{"source": "patent EP2601963B1", "about": "“N-ISOVALEROYL-L-GLUTAMYL-L-TRYPTOPHAN AS AN AGENT INHIBITING THE FORMATION OF ULCERS IN THE STOMACH AND THE DUODENUM” (Obshestvo S Ogranichennoj Otvetstvennostju \"CytoNIR\", priority 2010, dated 2015)", "key": {"[1]": {"test": "Acute toxicity, single intramuscular dose", "assay_type": "in vivo, white outbred male mice", "conditions": "single-dose administration, dose exceeding the recommended therapeutic dose more than 100 times", "experimental": "Total toxicity of N-isovaleroyl-L-glutamyl-L-tryptophan was studied in accordance with the requirements of The Handbook of the Experimental (non-clinical) Studies of Novel Pharmaceutical Substances (2000): single dose acute toxicity and sub-acute and chronic toxicity during long-term administration of the dipeptide.\nAcute toxicity testing was conducted on 60 white outbred male mice with 20 - 23 g body weights. The animals were divided into 6 equal groups. Single intramuscular doses of the medication were administered to the animals in the amount of 0.1 ml in the following doses: 1 mg/kg, 5 mg/kg, 10 mg/kg, and 20 mg/kg in sterile 0.9 % NaCl solution. The animals in the control group were receiving the same amounts of 0.9 % NaCl solution."}, "[2]": {"test": "Indomethacin-induced ulcer model, therapeutic: survival", "assay_type": "in vivo, male Wistar rats", "conditions": "Indomethacin 30 mg/kg", "experimental": "(§1) 2 ml/kg of the ulcerogenic dose of indomethacin equal to 30 mg/kg was administered intraperitoneally. The treatment started 24 hrs. post indomethacin administration and continued for 5 days. The animals in the experimental groups received N-isovaleroyl-L-glutamyl-L-tryptophan or the comparator drug Sucralfate, and the control group received distilled water.\nOn the 5th day, only 7 out of 10 animals in the control group survived, while in the group receiving VGT 9 out of 10 survived."}, "[3]": {"tested_on": "stress-induced gastric ulcers", "test": "Water-immersion stress model: gastric lesions, preventive treatment", "assay_type": "in vivo, male Wistar rats", "set-up": "key to GA1 (gastroprotective activity calculated for number of lesions): GA1 = PI of control group / PI of treated group; key to GA2 (gastroprotective activity calculated for lesion size): GA2 = UI of control group / UI of treated group; key to Pauls Index: PI = mean lesions per group × % animals with lesions / 100; key to Ulcer Index: UI = mean lesion area in group × % animals with lesions / 100", "experimental": "(§2) All studies were conducted on male Wistar rats weighing 220 ± 20 g, obtained from Rappolovo nursery (Leningrad oblast). For 14 days prior to the experiment, the animals were held in isolation. The animals were handled in accordance with the European Convention for the Protection of Vertebrate Animals used for Experimental and Other Scientific Purposes (Strasburg, 1986). The animals were held in standard plastic cages and fed a standard diet of PK120-3 (granulated feed in accordance with order # 1179 M3 USSR 10/10/1983) with a free access to water.\nIn each series, the animals were divided into experimental and control groups with 10 rats per group. The animals in the experimental groups were orally administered the claimed preparation or a comparator drug, and the control group animals received distilled water in the same amount.\nThe experimental animals were divided into 5 groups, 10 animals each. The animals received the following therapy: • control group received distilled water per os; • experimental group 1 received 0.1 mkg/kg N-isovaleroyl-L-glutamyl-L-tryptophan; • experimental group 2 received 10 mkg/kg N-isovaleroyl-L-glutamyl-L-tryptophan; • experimental group 3 received 200 mkg/kg of the comparator drug Sucralfate; • experimental group 4 received 50 mkg/kg of the comparator drug Misoprostol;\nThe experiment was conducted as follows: • The proposed drug, comparator drugs, and distilled water were administered once daily over 7 days, and on the day of the ulcerogenic stress induction one hour prior to the stress.\nThe rats deprived of food for 18 hrs. were placed into special cases and immersed in water vertically to the level of their xyphoids. The animals were held in this position for 5 hrs. at 23° C water temperature. After that, the animals were removed from the experiment.\n(§3) Animals' body weight changes were monitored throughout the experiment. The experimental animals were then sacrificed by decapitation, and their blood was collected in test tubes. The stomachs were extracted, dissected along the major curve, rinsed with cold saline solution, and the mucosa was carefully examined through a magnifying glass under bright lights. The mucosa was inspected for color, the presence of hyperemia and its intensity. The number of lesions, which were differentiated into small round (less than 1 mm), linear, and large lesions (more than 1mm) and the size of the area they covered were calculated. The average number of lesions per one animal in a group and the percentage of animals with ulcers were also calculated. Pauls Index (PI) was used as an integral indicator of the number of lesions and was calculated as follows: • PI = average number of lesions in a group x % of animals with lesions/100 [Pauls F., Wick A.M.,Mac. Key E.M. et al. An assau method for anti ulcer substances // Gastroenterology.- 1947. #8.- p.p.774 - 782]. Ulcer index UI was calculated as: UI = average lesion area size in the group x % of animals with lesions/100; gastroprotective activity GA1 was calculated as: GA1 = PI of the control group/PI of the experimental group, GA2 = UI of the control group/UI of the experimental group. The proposed drug was considered active when GA ≥ 2."}, "[4]": {"tested_on": "indomethacin-induced ulcers", "test": "Indomethacin-induced ulcer model, therapeutic treatment: healing of gastric lesions", "assay_type": "in vivo, male Wistar rats", "experimental": "as §2, §3\nFive groups of 10 animals per group were prepared for the experiment as described in Example 1.\nIn each series of the experiments, the animals were divided into experimental and control groups at 10 animals per group. The proposed medication or a comparator drug were orally administered to the animals in the experimental group, and the control animals were given distilled water in the same amount. • control group received distilled water per os; • experimental group 1 received 0.1 mkg/kg isovaleroyl glutamyl tryptophan; • experimental group 2 received 10 mkg/kg isovaleroyl glutamyl tryptophan; • experimental group 3 received 200 mkg/kg of the comparator drug Sucralfate.\nas §1"}, "[5]": {"conditions": "Indomethacin 30 mg/kg + 200 mg/kg, treatment 5 days"}}, "data": [{"substance": "N-isovaleroyl-L-glutamyl-L-tryptophan [VGT preparation]", "values": [{"measurement": "toxic reactions", "setting": "[1]", "result": "did not cause any toxic reactions"}, {"measurement": "animals survived", "setting": "[2]; 0.1 mkg/kg", "result": "9 out of 10"}, {"measurement": "animals survived", "setting": "[2]; on the 5th day, control 7 out of 10", "result": "9 out of 10"}, {"measurement": "# Lesions", "setting": "[3]; 0.1 mkg/kg + stress", "result": "15.4 ± 2.1"}, {"measurement": "% Animals with Ulcers", "setting": "[3]; 0.1 mkg/kg + stress", "result": 90, "unit": "%"}, {"measurement": "GA1 (gastroprotective activity calculated for number of lesions)", "setting": "[3]; 0.1 mkg/kg + stress", "result": 1.59}, {"measurement": "GA2 (gastroprotective activity calculated for lesion size)", "setting": "[3]; 0.1 mkg/kg + stress", "result": 2.58}, {"measurement": "Large round Amt.", "setting": "[3]; 0.1 mkg/kg + stress", "result": "6.9 ± 1.4"}, {"measurement": "Large round Size", "setting": "[3]; 0.1 mkg/kg + stress", "result": "4.4 ± 1.1"}, {"measurement": "Lesion Size", "setting": "[3]; 0.1 mkg/kg + stress", "result": "8.7 ± 2.0"}, {"measurement": "Linear Amt.", "setting": "[3]; 0.1 mkg/kg + stress", "result": "1.5 ± 0.7"}, {"measurement": "Linear Size", "setting": "[3]; 0.1 mkg/kg + stress", "result": "2.4 ± 1.0"}, {"measurement": "Pauls Index", "setting": "[3]; 0.1 mkg/kg + stress", "result": 13.9}, {"measurement": "Small round Amt.", "setting": "[3]; 0.1 mkg/kg + stress", "result": "7.0 ± 1.4"}, {"measurement": "Small round Size", "setting": "[3]; 0.1 mkg/kg + stress", "result": "1.9 ± 0.4"}, {"measurement": "Total Amt.", "setting": "[3]; 0.1 mkg/kg + stress", "result": "15.4 ± 2.1"}, {"measurement": "Total Size", "setting": "[3]; 0.1 mkg/kg + stress", "result": "8.7 ± 2.0"}, {"measurement": "Ulcer Index", "setting": "[3]; 0.1 mkg/kg + stress", "result": 7.83}, {"measurement": "# Lesions", "setting": "[3]; 10 mkg/kg + stress", "result": "16.3 ± 1.5"}, {"measurement": "% Animals with Ulcers", "setting": "[3]; 10 mkg/kg + stress", "result": 100, "unit": "%"}, {"measurement": "GA1 (gastroprotective activity calculated for number of lesions)", "setting": "[3]; 10 mkg/kg + stress", "result": 1.36}, {"measurement": "GA2 (gastroprotective activity calculated for lesion size)", "setting": "[3]; 10 mkg/kg + stress", "result": 2.08}, {"measurement": "Lesion Size", "setting": "[3]; 10 mkg/kg + stress", "result": "9.7 ± 1.2"}, {"measurement": "Pauls Index", "setting": "[3]; 10 mkg/kg + stress", "result": 16.3}, {"measurement": "Ulcer Index", "setting": "[3]; 10 mkg/kg + stress", "result": 9.7}, {"measurement": "Large round Amt.", "setting": "[3]; 10.0 mkg/kg + stress", "result": "5.7 ± 1.1"}, {"measurement": "Large round Size", "setting": "[3]; 10.0 mkg/kg + stress", "result": "3.4 ± 0.7"}, {"measurement": "Linear Amt.", "setting": "[3]; 10.0 mkg/kg + stress", "result": "1.4 ± 0.3"}, {"measurement": "Linear Size", "setting": "[3]; 10.0 mkg/kg + stress", "result": "3.9 ± 1.4"}, {"measurement": "Small round Amt.", "setting": "[3]; 10.0 mkg/kg + stress", "result": "9.2 ± 1.5"}, {"measurement": "Small round Size", "setting": "[3]; 10.0 mkg/kg + stress", "result": "2.5 ± 0.4"}, {"measurement": "Total Amt.", "setting": "[3]; 10.0 mkg/kg + stress", "result": "16.3 ± 1.5"}, {"measurement": "Total Size", "setting": "[3]; 10.0 mkg/kg + stress", "result": "9.7 ± 1.2"}, {"measurement": "size of lesions smaller than in the control group animals", "setting": "[3]; stress, both doses", "result": "2.1 - 2.6 times"}, {"measurement": "reduced the size of large lesions", "setting": "[3]; stress, depending on the dose (0.1 mkg/kg by Table 1)", "result": 2.7, "unit": "times"}, {"measurement": "reduced the size of large lesions", "setting": "[3]; stress, depending on the dose (10 mkg/kg by Table 1)", "result": 3.4, "unit": "times"}]}, {"substance": "aluminum complex of beta-D-fructofuranosyl-alpha-D-glucopyranoside octakis (hydrosulfate) [Sucralfate]", "values": [{"measurement": "# Lesions", "setting": "[4]; [5]", "result": "3.3 ± 1.0"}, {"measurement": "% Animals with Ulcers", "setting": "[4]; [5]", "result": 85.7, "unit": "%"}, {"measurement": "GA1 (gastroprotective activity calculated for number of lesions)", "setting": "[4]; [5]", "result": 3.0}, {"measurement": "GA2 (gastroprotective activity calculated for lesion size)", "setting": "[4]; [5]", "result": 3.3}, {"measurement": "Lesion Size", "setting": "[4]; [5]", "result": "11.5 ± 4.26"}, {"measurement": "PI", "setting": "[4]; [5]", "result": 2.8}, {"measurement": "Ulcer Index", "setting": "[4]; [5]", "result": 9.86}, {"measurement": "animals found to have lesions", "setting": "[4]; treatment after Indomethacin", "result": 85.7, "unit": "%"}]}]}
